Data on 5 compounds can be found in patent US12391737B2, “Soluble NPY2 receptor agonists” (Boehringer Ingelheim International GmbH, priority 2020, dated 2025).

Bounds are passed on as bounds.

Series [1] concerns the target T1, Human Neuropeptide Y2 Receptor (Homo sapiens, UniProt P49146).
T1 construct: purchased CHEMICON HTS066M
T1 sequence (P49146 1-381): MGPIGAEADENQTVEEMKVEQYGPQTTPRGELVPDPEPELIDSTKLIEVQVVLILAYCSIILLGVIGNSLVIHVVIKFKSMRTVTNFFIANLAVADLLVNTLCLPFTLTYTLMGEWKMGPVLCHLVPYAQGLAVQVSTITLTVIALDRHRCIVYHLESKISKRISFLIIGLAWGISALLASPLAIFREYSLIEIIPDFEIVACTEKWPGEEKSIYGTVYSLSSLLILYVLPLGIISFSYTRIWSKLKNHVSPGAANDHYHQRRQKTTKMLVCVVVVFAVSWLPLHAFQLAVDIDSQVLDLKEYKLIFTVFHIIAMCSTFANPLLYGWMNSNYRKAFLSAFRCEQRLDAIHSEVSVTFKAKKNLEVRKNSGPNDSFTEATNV
The experiment in a line: Radioligand binding competition assay (RLB). The settings on record: Table 3, 125I-PYY(1-36) competition; read-out: Ki. In short, it runs like this:
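Filtration binding assay on human Y2 receptor membrane preparation, 0.5 μg protein per well, in 50 mM HEPES pH 7.4 containing 5 mM MgCl2, 1 mM CaCl2 and 0.2% ovalbumin. Plates shake 2 h at room temperature before harvest and scintillation counting.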

Series [2] can be described thus: Solubility determination. The settings on record: for Sol6: pH 6; for Sol7: pH 7. In short, it runs like this: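 Solubility is derived from the ratio of reversed-phase peak areas, filtered sample over a control dissolved at 1 mg/ml in 50% acetonitrile. Peptides are agitated for 2 hours at room temperature in 0.1 M sodium diphosphate at pH 6.4 or 7.0, aiming at 10 mg/ml.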

As usually defined, the Ki is a dissociation constant, usually derived from enzyme kinetics or from competition with a known ligand. Turning to `CC[C@H](C)[C@H](NC(=O)[C@H](CCC(=O)O)NC(=O)[C@H](CCC(=O)O)NC(=O)[C@@H]1CCCN1C(=O)[C@H](CCC(=O)O)NC(=O)[C@H](C)NC(=O)[C@H](CC(=O)O)NC(=O)[C@H](C)NC(=O)[C@H](CCC(=O)O)NC(=O)[C@@H]1CCCN1C(=O)[C@H](CCCCNC(=O)CCCCCNC(=O)CC[C@H](NC(=O)CCCCCCCCCCCCCCCCC(=O)O)C(=O)O)NC(=O)[C@H](CCC(=O)O)NC(=O)[C@@H]1CCCN1C(=O)[C@H](C)NC(=O)CC(C)C)C(=O)N[C@@H](CCC(N)=O)C(=O)N[C@@H](CCCNC(=N)N)C(=O)N[C@@H](Cc1ccc(O)cc1)C(=O)N[C@@H](Cc1ccc(O)cc1)C(=O)N[C@H](C(=O)N[C@@H](C)C(=O)N[C@@H](CC(C)C)C(=O)N[C@@H](CCCNC(=N)N)C(=O)N[C@@H](Cc1c[nH]cn1)C(=O)N[C@@H](Cc1ccc(O)cc1)C(=O)N[C@@H](Cc1ccc(O)cc1)C(=O)N[C@@H](CC(N)=O)C(=O)N[C@@H](Cc1c[nH]c2ccccc12)C(=O)N[C@@H](CC(C)C)C(=O)N[C@H](C(=O)N[C@@H](CCCNC(=N)N)C(=O)N[C@@H](CCC(N)=O)C(=O)N[C@@H](CCCNC(=N)N)C(=O)N[C@@H](Cc1ccc(O)cc1)C(N)=O)[C@@H](C)O)C(C)C` [Compound 131, N{alpha-4}-(3-methylbutanoyl)-N{epsilon-7}-(6-[(4S)-4-carboxy-4-(17-carboxyheptadecanamido)butanamido]hexanoyl)-[4A,7K,9E,10A,13E,17I,18Q,22V,23A,28Y,30W,31L]-hPYY(4-36)], the inhibition constant Ki in series [1] was determined as 1.54 nM. In series [2], the “Sol6” value was found to be 10.0 mg/mL and the “Sol7” value was greater than 10.0 mg/mL.

As to `CC(C)CC(=O)N[C@@H](C)C(=O)N1CCC[C@H]1C(=O)N[C@@H](C)C(=O)N[C@@H](CCCCNC(=O)CCCCCNC(=O)CC[C@H](NC(=O)CCCCCCCCCCCCCCCCC(=O)O)C(=O)O)C(=O)N1CCC[C@H]1C(=O)N[C@@H](CCC(=O)O)C(=O)N[C@@H](CCC(=O)O)C(=O)N[C@@H](CC(=O)O)C(=O)N[C@@H](C)C(=O)N[C@@H](CO)C(=O)N1CCC[C@H]1C(=O)N[C@@H](CCC(=O)O)C(=O)N[C@@H](CCC(=O)O)C(=O)N[C@@H](CO)C(=O)N[C@@H](CCC(N)=O)C(=O)N[C@@H](CCCNC(=N)N)C(=O)N[C@@H](Cc1ccc(O)cc1)C(=O)N[C@@H](Cc1ccc(O)cc1)C(=O)N[C@H](C(=O)N[C@@H](CO)C(=O)N[C@@H](CC(C)C)C(=O)N[C@@H](CCCNC(=N)N)C(=O)N[C@@H](Cc1c[nH]cn1)C(=O)N[C@@H](Cc1ccc(O)cc1)C(=O)N[C@@H](Cc1ccc(O)cc1)C(=O)N[C@@H](CC(N)=O)C(=O)N[C@@H](Cc1c[nH]c2ccccc12)C(=O)N[C@@H](CC(C)C)C(=O)N[C@H](C(=O)N[C@@H](CCCNC(=N)N)C(=O)N[C@@H](CCC(N)=O)C(=O)N[C@@H](CCCNC(=N)N)C(=O)N[C@@H](Cc1ccc(O)cc1)C(N)=O)[C@@H](C)O)C(C)C` [Compound 149, N{alpha-4}-(3-methylbutanoyl)-N{epsilon-7}-(6-[(4S)-4-carboxy-4-(17-carboxyheptadecanamido)butanamido]hexanoyl)-[4A,6A,7K,9E,17S,18Q,22V,28Y,30W,31L]-hPYY(4-36)], the inhibitory constant (Ki) in series [1] worked out at 3.97 nM. Moreover, in series [2], the “Sol6” value was 8.7 mg/mL and the “Sol7” value is 10.0 mg/mL.

For the compound `CC[C@H](C)[C@H](NC(=O)[C@H](CCC(=O)O)NC(=O)[C@H](CCC(=O)O)NC(=O)[C@@H]1CCCN1C(=O)[C@H](CO)NC(=O)[C@H](C)NC(=O)[C@H](CC(=O)O)NC(=O)[C@H](CCC(=O)O)NC(=O)[C@@H]1CCCN1C(=O)[C@@H]1CCCN1C(=O)[C@H](CCCCNC(=O)CCCCCNC(=O)CC[C@H](NC(=O)CCCCCCCCCCCCCCCCC(=O)O)C(=O)O)NC(=O)[C@H](C)NC(=O)[C@@H]1CCCN1C(=O)[C@H](C)NC(=O)CC(C)C)C(=O)N[C@@H](CCC(N)=O)C(=O)N[C@@H](CCCNC(=N)N)C(=O)N[C@@H](Cc1ccc(O)cc1)C(=O)N[C@@H](Cc1ccc(O)cc1)C(=O)N[C@H](C(=O)N[C@@H](CO)C(=O)N[C@@H](CC(C)C)C(=O)N[C@@H](CCCNC(=N)N)C(=O)N[C@@H](Cc1c[nH]cn1)C(=O)N[C@@H](Cc1ccc(O)cc1)C(=O)N[C@@H](Cc1ccc(O)cc1)C(=O)N[C@@H](CC(N)=O)C(=O)N[C@@H](Cc1c[nH]c2ccccc12)C(=O)N[C@@H](CC(C)C)C(=O)N[C@H](C(=O)N[C@@H](CCCNC(=N)N)C(=O)N[C@@H](CCC(N)=O)C(=O)N[C@@H](CCCNC(=N)N)C(=O)N[C@@H](Cc1ccc(O)cc1)C(N)=O)[C@@H](C)O)C(C)C` [Compound 82, N{alpha-4}-(3-methylbutanoyl)-N{epsilon-7}-(6-[(4S)-4-carboxy-4-(17-carboxyheptadecanamido)butanamido]hexanoyl)-[4A,6A,7K,9P,17I,18Q,22V,28Y,30W,31L]-hPYY(4-36)], the inhibitory constant (Ki) in series [1] amounted to 0.58 nM. Further, in series [2], the “Sol6” value was determined as 0.0 mg/mL and the “Sol7” value was 9.0 mg/mL.

For `CC(C)CC(=O)N[C@@H](C)C(=O)N1CCC[C@H]1C(=O)N[C@@H](CCC(=O)O)C(=O)N[C@@H](CCCCNC(=O)CCCCCNC(=O)CC[C@H](NC(=O)CCCCCCCCCCCCCCCCC(=O)O)C(=O)O)C(=O)N1CCC[C@H]1C(=O)N[C@@H](CCC(=O)O)C(=O)N[C@@H](CCC(=O)O)C(=O)N[C@@H](CC(=O)O)C(=O)N[C@@H](C)C(=O)N[C@H](C(=O)N1CCC[C@H]1C(=O)N[C@@H](CCC(=O)O)C(=O)N[C@@H](CCC(=O)O)C(=O)N[C@@H](CC(C)C)C(=O)N[C@@H](CCC(N)=O)C(=O)N[C@@H](CCC(N)=O)C(=O)N[C@@H](Cc1ccc(O)cc1)C(=O)N[C@@H](Cc1ccc(O)cc1)C(=O)N[C@H](C(=O)N[C@@H](CO)C(=O)N[C@@H](CC(C)C)C(=O)N[C@@H](CCCNC(=N)N)C(=O)N[C@@H](Cc1c[nH]cn1)C(=O)N[C@@H](Cc1ccc(O)cc1)C(=O)N[C@@H](Cc1ccc(O)cc1)C(=O)N[C@@H](CC(N)=O)C(=O)N[C@@H](Cc1c[nH]c2ccccc12)C(=O)N[C@@H](CC(C)C)C(=O)N[C@H](C(=O)N[C@@H](CCCNC(=N)N)C(=O)N[C@@H](CCC(N)=O)C(=O)N[C@@H](CCCNC(=N)N)C(=O)N[C@@H](Cc1ccc(O)cc1)C(N)=O)[C@@H](C)O)C(C)C)[C@@H](C)O` [Compound 177, N{alpha-4}-(3-methylbutanoyl)-N{epsilon-7}-(6-[(4S)-4-carboxy-4-(17-carboxyheptadecanamido)butanamido]hexanoyl)-[4A,7K,9E,13T,18Q,19Q,22V,28Y,30W,31L]-hPYY(4-36)], the inhibition constant Ki in series [1] amounted to 8.65 nM. For the same compound, in series [2], the “Sol6” value was greater than 10.0 mg/mL and the “Sol7” value came to 10.0 mg/mL.

As to `CC(C)CC(=O)N[C@@H](C)C(=O)N1CCC[C@H]1C(=O)N[C@@H](CCC(=O)O)C(=O)N[C@@H](CCCCNC(=O)CCCCCNC(=O)CC[C@H](NC(=O)CCCCCCCCCCCCCCCCC(=O)O)C(=O)O)C(=O)N1CCC[C@H]1C(=O)N[C@@H](CCC(=O)O)C(=O)N[C@@H](CCC(=O)O)C(=O)N[C@@H](CC(=O)O)C(=O)N[C@@H](CO)C(=O)N[C@@H](CO)C(=O)N1CCC[C@H]1C(=O)N[C@@H](CCC(=O)O)C(=O)N[C@@H](CCC(=O)O)C(=O)N[C@@H](CC(C)C)C(=O)N[C@@H](CCC(N)=O)C(=O)N[C@@H](CCCNC(=N)N)C(=O)N[C@@H](Cc1ccc(O)cc1)C(=O)N[C@@H](Cc1ccc(O)cc1)C(=O)N[C@H](C(=O)N[C@@H](C)C(=O)N[C@@H](CC(C)C)C(=O)N[C@@H](CCCNC(=N)N)C(=O)N[C@@H](Cc1c[nH]cn1)C(=O)N[C@@H](Cc1ccc(O)cc1)C(=O)N[C@@H](Cc1ccc(O)cc1)C(=O)N[C@@H](CC(N)=O)C(=O)N[C@@H](Cc1c[nH]c2ccccc12)C(=O)N[C@@H](CC(C)C)C(=O)N[C@H](C(=O)N[C@@H](CCCNC(=N)N)C(=O)N[C@@H](CCC(N)=O)C(=O)N[C@@H](CCCNC(=N)N)C(=O)N[C@@H](Cc1ccc(O)cc1)C(N)=O)[C@@H](C)O)C(C)C` [Compound 24, N{alpha-4}-(3-methylbutanoyl)-N{epsilon-7}-(6-[(4S)-4-carboxy-4-(17-carboxyheptadecanamido)butanamido]hexanoyl)[4A,7K,9E,12S,18Q,22V,23A,28Y,30W,31L]-hPYY(4-36)], the inhibitory constant (Ki) in series [1] turned out to be 3.39 nM. Further, in series [2], the “Sol6” value worked out at 9.8 mg/mL and the “Sol7” value is 10.0 mg/mL.
